Measurements from patent publication US8481542B2, “Pyridazinyl derivatives as smo inhibitors” (Novartis AG, priority 2008, dated 2013).
In brackets after ≈: the same amount, converted by molar mass. Where two headings read alike, the source gives them in different places.

Assays:
[1] = target: mouse Smoothened receptor (Mus musculus, UniProt P56726); test: Smo binding assay, displacement of radio-labeled smoothened agonist, filter binding format (mouse); conditions: read-out: Mouse Smo bdg., IC50
Source text: (§1) A Smo binding assay was developed using radio-labeled smoothened agonist for compound competition. Table 10 lists the IC50 for displacement of a small molecule agonist of Smoothened determined in a filter binding format for the mouse and human Smoothened receptor.

[2] = target: human Smoothened receptor (Homo sapiens, UniProt Q99835); test: Smo binding assay, displacement of radio-labeled smoothened agonist, filter binding format (human); conditions: read-out: Human Smo bdg., IC50
Source text: as §1

[3] = test system: Gli-luciferase activity in TMHh12 cells; test: Reporter gene assay (RGA) in TMHh12 cells, antagonism of Gli-luciferase activity in presence of Smo agonist; type: cell-based
Method: Activity of the compounds was evaluated using a reporter gene assay (RGA) in TMHh12 cells.

[4] = equilibrium solubility at pH 6.8; type: physicochemical; conditions: aqueous buffer, thermodynamic from solid, examples of the present invention
[5] = examples of the present invention, exact values
[6] = TMHh12, read-out: RGA (1 nM Smo agonist) IC50, 1 nM Smo agonist, examples of the present invention, exact values
[7] = TMHh12, read-out: RGA (25 nM Smo agonist) IC50, 25 nM Smo agonist, examples of the present invention, exact values
[8] = read-out: RGA (1 nM Smo agonist) IC50, 1 nM Smo agonist, Table 10, values as ranges
[9] = read-out: RGA (25 nM Smo agonist) IC50, 25 nM Smo agonist, Table 10, values as ranges

Chain of human Smoothened receptor (Q99835 28-787): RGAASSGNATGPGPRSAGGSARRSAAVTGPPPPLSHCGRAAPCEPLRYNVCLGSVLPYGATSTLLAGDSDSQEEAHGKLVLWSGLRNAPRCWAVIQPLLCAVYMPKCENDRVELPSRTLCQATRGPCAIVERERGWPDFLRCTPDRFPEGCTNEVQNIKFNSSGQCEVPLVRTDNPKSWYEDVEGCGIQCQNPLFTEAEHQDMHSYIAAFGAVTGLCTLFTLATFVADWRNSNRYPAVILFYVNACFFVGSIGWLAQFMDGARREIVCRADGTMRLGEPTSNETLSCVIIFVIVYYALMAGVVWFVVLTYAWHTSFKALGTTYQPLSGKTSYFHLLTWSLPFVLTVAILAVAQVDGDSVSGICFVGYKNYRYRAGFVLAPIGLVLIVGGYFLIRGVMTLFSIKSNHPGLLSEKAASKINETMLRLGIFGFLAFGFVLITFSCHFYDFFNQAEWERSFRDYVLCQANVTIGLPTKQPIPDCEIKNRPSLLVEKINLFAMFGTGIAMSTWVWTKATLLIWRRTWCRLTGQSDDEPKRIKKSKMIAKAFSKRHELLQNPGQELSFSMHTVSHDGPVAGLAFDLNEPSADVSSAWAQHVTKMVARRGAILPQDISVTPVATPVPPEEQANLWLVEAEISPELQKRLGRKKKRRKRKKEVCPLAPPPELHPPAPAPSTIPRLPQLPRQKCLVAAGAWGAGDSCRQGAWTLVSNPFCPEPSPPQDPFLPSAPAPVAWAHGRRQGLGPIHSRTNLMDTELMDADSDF
Chain of mouse Smoothened receptor (P56726 33-793): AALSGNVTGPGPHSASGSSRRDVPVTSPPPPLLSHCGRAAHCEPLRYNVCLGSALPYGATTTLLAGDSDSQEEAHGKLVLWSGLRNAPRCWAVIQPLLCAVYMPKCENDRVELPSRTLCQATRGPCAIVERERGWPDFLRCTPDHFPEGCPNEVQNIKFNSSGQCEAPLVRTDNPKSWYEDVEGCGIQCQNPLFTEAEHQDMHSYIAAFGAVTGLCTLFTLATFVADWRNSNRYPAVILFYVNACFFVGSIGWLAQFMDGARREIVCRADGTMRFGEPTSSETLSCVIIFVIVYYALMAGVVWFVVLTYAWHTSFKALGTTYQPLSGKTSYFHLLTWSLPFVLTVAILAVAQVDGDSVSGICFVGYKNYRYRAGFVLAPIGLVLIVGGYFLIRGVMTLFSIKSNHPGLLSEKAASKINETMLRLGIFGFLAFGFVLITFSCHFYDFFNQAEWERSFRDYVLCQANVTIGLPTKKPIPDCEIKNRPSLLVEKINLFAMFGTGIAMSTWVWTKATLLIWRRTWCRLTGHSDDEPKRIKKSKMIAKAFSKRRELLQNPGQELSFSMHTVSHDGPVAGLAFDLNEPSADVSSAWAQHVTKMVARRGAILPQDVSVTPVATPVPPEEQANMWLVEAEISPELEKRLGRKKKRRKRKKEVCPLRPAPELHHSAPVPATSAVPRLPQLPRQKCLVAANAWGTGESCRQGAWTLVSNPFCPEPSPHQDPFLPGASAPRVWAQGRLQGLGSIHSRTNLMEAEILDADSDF

Molecule | IC50 [1, 5] [nM] | IC50 [2, 5] [nM] | IC50 [3, 6] [nM] | IC50 [3, 7] [nM] | IC50 ([1]; Table 10, values as ranges) [nM] | IC50 ([2]; Table 10, values as ranges) [nM] | IC50 [3, 8] [nM] | IC50 [3, 9] [nM] | solubility thermodynamic [4] [µM]
C[C@@H]1CN(c2nnc(Cc3ccccc3)c3c2CCC3)CCN1c1cc(C(F)(F)F)c(C(C)(C)O)cn1 [Example 107] | 3 | 3 | 2 | 23 | – | – | – | – | –
CC[C@@H]1CN(c2nnc(Cc3ccccc3)c(C)c2C)CCN1c1cnc(C(C)(C)O)cn1 [Example 91] | 8 | 8 | 5 | 57 | – | – | – | – | –
Cc1c(Cc2ccccc2)nnc(N2CCC(C)(c3nc4cnccc4[nH]3)CC2)c1C [Example 59, 2-[1-(6-Benzyl-4,5-dimethyl-pyridazin-3-yl)-4-methyl-piperidin-4-yl]-1H-imidazo[4,5-c]pyridine] | – | – | – | – | 1 to 25 | 1 to 10 | 1 to 10 | 1 to 25 | –
CC(C)(O)c1ccc(N2CCN(c3nnc(Cc4ccc(F)cc4)c4c3CCC4)CC2)nc1 [Example 105] | 6 | 7 | 3 | 35 | – | – | – | – | –
Cc1c(Oc2ccccc2)nnc(N2CCN(c3cnc(C(C)(C)O)cn3)[C@H](C)C2)c1C [Example 2, 2-[(R)-4-(4,5-Dimethyl-6-phenoxy-pyridazin-3-yl)-2-methyl-3,4,5,6-tetra-hydro-2H-[1,2′]bipyrazinyl-5′-yl]-propan-2-ol] | 8 | 4 | 2 | 23 | – | – | – | – | –
Cc1c(Cc2ccc(F)cc2)nnc(N2CCN(c3ccc(C(C)(C)O)cn3)CC2)c1C [Example 106] | 5 | 7 | 5 | 76 | – | – | – | – | –
C[C@@H]1CN(c2nnc(Cc3ccccc3)c3c2CCC3)CCN1c1cnc(C(C)(C)O)cn1 [Example 93] | 3 | 1 | 1 | 14 | – | – | – | – | 20 (≈ 8.89 µg/mL)
Cc1c(Cc2ccncc2)nnc(N2CCN(c3cnc(C(C)(C)O)cn3)[C@H](C)C2)c1C [Example 50, 2-[(R)-4-(4,5-Dimethyl-6-pyridin-4-ylmethyl-pyridazin-3-yl)-2-methyl-3,4,5,6-tetrahydro-2H-[1,2′]bipyrazinyl-5′-yl]-propan-2-ol] | 32 | 29 | 6 | 114 | – | – | – | – | > 1000
Cc1c(C(O)c2ccccc2)nnc(N2CCN(c3cnc(C(C)(C)O)cn3)[C@H](C)C2)c1C (stereo partly shown) [Example 48] | 8 | 5 | 2 | 25 | – | – | – | – | 425 (≈ 191 µg/mL)
C[C@@H]1CN(c2nnc(Cc3ccccc3)c3c2CCC3)CCN1c1ncc(C(C)(C)O)c(C(F)(F)F)n1 [Example 98] | 6 | 6 | 11 | 69 | – | – | – | – | –
4,5-Dimethyl-3-(1-methyl-1H-tetrazol-5-ylmethyl)-6-[4-(5-trifluoromethyl-pyridin-2-yl)-piperazin-1-yl]-pyridazine & 4,5-Dimethyl-3-(2H-methyl-2H-tetrazol-5-ylmethyl)-6-[4-(5-trifluoromethyl-pyridin-2-yl)-piperazin-1-yl]-pyridazine [160/161] | – | – | – | – | 1 to 10 | 1 to 10 | 1 to 10 | 1 to 25 | –
Cc1c(Cc2ccccc2)nnc(N2CCN(c3cnc(C(C)(O)CO)cn3)[C@H](C)C2)c1C (stereo partly drawn) [Example 144, 2-[(R)-4-(6-Benzyl-4,5-dimethyl-pyridazin-3-yl)-2-methyl-3,4,5,6-tetrahydro-2H-[1,2]bipyrazinyl-5′-yl]-propane-1,2-diol] | 19 | 24 | 5 | 83 | – | – | – | – | 270 (≈ 121 µg/mL)
Cc1c(Cc2ccc(F)cc2)nnc(N2CCN(c3ncc(C(C)(C)O)c(C(F)(F)F)n3)[C@H](C)C2)c1C [Example 97] | 2 | 2 | 3 | 35 | – | – | – | – | –
Cc1c(Cc2ccccc2)nnc(N2CCN(c3ncc(C(C)(C)O)c(C(F)(F)F)n3)[C@H](C)C2)c1C [Example 96] | 4 | 3 | 6 | 62 | – | – | – | – | –
C[C@@H]1CN(c2nnc(Cc3ccc(F)cc3)c3c2CCC3)CCN1c1ncc(C(C)(C)O)c(C(F)(F)F)n1 [Example 99] | 3 | 2 | 5 | 72 | – | – | – | – | –
CC(=O)c1cnc(N2CCN(c3nnc(Cc4ccccc4)c4c3CCC4)C[C@H]2C)cc1C(F)(F)F [Example 108] | – | – | 4 | 33 | – | – | – | – | –
CCC(O)(CC)c1cnc(N2CCN(c3nnc(Cc4ccccc4)c(C)c3C)C[C@H]2C)cn1 [Example 111] | 2 | 1 | 1 | 18 | – | – | – | – | –
Cc1c(Cc2ccccc2)nnc(N2CCN(c3cnc(C(C)(C)O)cn3)CC2)c1C [Example 89] | 15 | 11 | 2 | 60 | – | – | – | – | 11 (≈ 4.6 µg/mL)
CC(C)(O)c1ccc(N2CCN(c3nnc(Cc4ccc(F)cc4)c4c3CCCC4)CC2)nc1 [Example 104] | 9 | 14 | 5 | 70 | – | – | – | – | –
Cc1c(Cc2ccccn2)nnc(N2CCN(c3cnc(C(C)(C)O)cn3)[C@H](C)C2)c1C [Example 54, 2-[(R)-4-(4,5-Dimethyl-6-pyridin-2-ylmethyl-pyridazin-3-yl)-2-methyl-3,4,5,6-tetrahydro-2H-[1,2′]bipyrazinyl-5′-yl]-propan-2-ol] | 30 | 22 | 7 | 83 | – | – | – | – | 619 (≈ 268 µg/mL)
CC(=O)c1cnc(N2CCN(c3nnc(Cc4ccccc4)c(C)c3C)C[C@H]2C)cn1 [Example 95, 1-[(R)-4-(6-Benzyl-4,5-dimethyl-pyridazin-3-yl)-2-methyl-3,4,5,6-tetrahydro-2H-[1,2]bipyrazinyl-5′-yl]-ethanone] | 9 | 8 | 8 | 110 | – | – | – | – | –
Cc1c(Cc2ccccc2)nnc(N2CCN(c3cnc(C(C)(C)O)cn3)[C@H](C)C2)c1C [Example 88, 2-[(R)-4-(6-Benzyl-4,5-dimethyl-pyridazin-3-yl)-2-methyl-3,4,5,6-tetrahydro-2H-[1,2′]bipyrazinyl-5′-yl]-propan-2-ol] | 3 | 9 | 1 | 14 | – | – | – | – | 44 (≈ 19 µg/mL)
C[C@@H]1CN(c2nnc(Cc3ccc(F)cc3)c3c2CCC3)CCN1c1cc(C(F)(F)F)c(C(C)(C)O)cn1 [Example 109] | 2 | 2 | 3 | 38 | – | – | – | – | –
Cc1c(Cc2ccccc2)nnc(N2CCN(c3cnc(C(C)(C)O)cn3)[C@@H](C)C2)c1C [Example 90] | 7 | 6 | 1 | 34 | – | – | – | – | 18 (≈ 7.79 µg/mL)
COC(=O)c1cnc(N2CCN(c3nnc(-c4ccc(F)c(Cl)c4)c(C)c3C)CC2)nc1C(F)(F)F [Example 20] | – | – | – | – | < 0.1 | < 0.1 | < 0.1 | 0.1 to 1 | –
